Results: US10045977B2, “Use of nalmefene in non-alcoholic steatohepatitis” (TAIWANJ PHARMACEUTICALS CO., LTD., priority 2016, dated 2018)

How the values were obtained:
[1] = test system: MCD diet fatty liver rats given E coli endotoxin (LPS); experiment: Methionine-choline-deficient (MCD) diet rat model with LPS second hit; type: in vivo, Sprague Dawley rats; details: 6 h after LPS 2 mg/kg IP, n=3, not statistically significant
[2] = test system: STAM model of NASH; experiment: In vivo efficacy study in STAM model of NASH; design: Steatosis score / Inflammation score / Ballooning score: scale not given here; details: for NAS (NAFLD Activity Score) compared with the Vehicle group, in words: HE-stained liver sections; for NAS (NAFLD Activity Score) compared with the Vehicle group, in words / Fibrosis area (Sirius red-positive area) compared with the Vehicle group: week 9; for Fibrosis area (Sirius red-positive area) compared with the Vehicle group: Sirius red-stained liver sections; for Ballooning score / Inflammation score / NAS (NAFLD activity score) / Steatosis score: mean ± SEM, twice daily from 6 to 9 weeks of age, Telmisartan 10 mg/kg oral, nalmefene/naltrexone 5 mg/kg s.c.
From the text: FIG. 3 sets out representative photomicrographs of HE-stained sections of livers from STAM model of NASH. Sections were cut from paraffin blocks of liver tissue prefixed in Bouin's solution and stained with Lillie-Mayer's Hematoxylin and eosin solution.
To visualize collagen deposition, Bouin's-fixed left lateral liver sections were stained using picro-Sirius red solution (Waldeck, Germany). b) For quantitative analysis of fibrosis area, bright field images of Sirius red-stained sections were captured around the central vein using a digital camera (DFC295; Leica, Germany) at 200-fold magnification, and the positive areas in 5 fields/section were measured using ImageJ software (National Institute of Health, USA). Individual values and mean±SEM for each treatment group are presented.
General Procedure NASH was induced in male C57BL/6 mice by a single subcutaneous injection of 200 μg streptozotocin solution 2 days after birth and feeding with high fat diet (HFD, 57 kcal % fat, Cat# HFD32, CLEA Japan, Japan) after 4 weeks of age. The animals were divided into groups of six each and were orally administered vehicle (1% Tween80) at 10 mL/kg or Telmisartan at 10 mg/kg twice daily from 6 to 9 weeks of age. […] The animals were sacrificed at week 9.

[3] = test system: Kupffer cells; experiment: LPS-stimulated release of TNF-α in Kupffer cells; type: cell-based, rat; details: E. coli LPS; supernatant TNF-α at 2, 4, 6 hours; FIG. 1
Description: Kupffer cells were isolated by enzymatic digestion and purified by centrifugal elutriation from normal rats and cultured overnight. They were then stimulated with E. coli LPS either without or with Compound A added to the medium. TNF-α content in the supernatant was measured at 2, 4, and 6 hours.

[4] = test system: p38 MAP kinase phosphorylation in Kupffer cells; experiment: LPS-induced p38 MAP kinase phosphorylation in Kupffer cells; type: cell-based, rat; details: Compound A 100 ng/mL; 5 and 20 min; n=3 replicates; FIG. 2
[5] = test system: MCD diet fatty liver rats given E coli endotoxin (LPS); experiment: Methionine-choline-deficient (MCD) diet rat model with LPS second hit; type: in vivo, Sprague Dawley rats; details: for Prevention of liver injury following LPS in fatty liver rats: 0-30 mg/kg oral, FIG. 5; for Serum ALT change, in words: 6 h after LPS, p<0.05
Description: 20 Sprague Dawley rats were administered with Compound A by oral gavage once daily at 0, 5, 10, 20 or 30 mg/kg (4 rats/group) for 4 weeks. All animals were fed a methionine/choline deficient (MCD) diet (from Dyets, Inc) five times per week during the feeding period in order to produce a diet-induced fatty liver. Rats were weighed daily as well as food intake. At the end of four weeks, the rats were administered 2 mg/kg E coli endotoxin (LPS) IP and 6 hours later the rats were euthanized and liver tissue and serum collected. Liver and was harvested at time of death as was blood. Histology samples were also taken.

Row | Structure (SMILES) | Decrease of elevated serum ALT levels ([1]; 5 mg/kg oral once daily 4 weeks) | Decrease of elevated serum ALT levels ([1]; 10 mg/kg oral once daily 4 weeks) | Mortality during the treatment period ([2]; 5 mg/kg s.c. twice daily, before week 9) | NAS (NAFLD Activity Score) compared with the Vehicle group, in words [2] | Fibrosis area (Sirius red-positive area) compared with the Vehicle group [2] | Ballooning score [2] | Inflammation score [2] | NAS (NAFLD activity score) [2] | Steatosis score [2] | LPS/time-dependent increase in TNF-α released by Kupffer cells [3] | LPS-induced p38 MAP kinase phosphorylation [4] | Prevention of liver injury following LPS in fatty liver rats [5] | Prevention of liver injury following LPS in fatty liver rats ([5]; listed as Nalmefene) | Serum ALT change, in words ([5]; 20 mg/kg oral once daily 4 weeks) | Serum ALT ([5]; 30 mg/kg oral once daily 4 weeks, 6 h after LPS 2 mg/kg IP) | Serum ALT change, in words ([5]; 30 mg/kg oral once daily 4 weeks) | Liver histopathology finding ([5]; MCD and Compound A treated rats, FIG. 7) | Liver histopathology finding ([5]; MCD+LPS+Compound A treated rats, FIG. 7) | Hepatic fat accumulation (histopathology) ([5]; treated rats compared to control, FIG. 7) | Mean body weight during the treatment period ([2]; 6 to 9 weeks of age)
1 | C=C1CC[C@@]2(O)C3Cc4ccc(O)c5c4C2(CCN3CC2CC2)C1O5 (stereo in doubt) [Compound A, 17-cyclopropylmethyl-4,5α-epoxy-6-methylenemorphinan-3,14-diol] | ~50% | ~50% | one out of six mice was found dead | tended to show decrease | tended to shown decrease | 0.40 ± 0.24 | 1.80 ± 0.20 | 3.00 ± 0.63 | 0.80 ± 0.49 | inhibited | reduced | dose-dependent prevention of liver injury | demonstrated efficacy in preventing inflammatory liver damage | further decrease that was significant | 94.9+/−5.5 U/L | further decrease that was significant | slight periportal chronic inflammation (mild nonspecific chronic hepatitis) | slight periportal chronic inflammation | prevents hepatic fat accumulation | 
2 | O=C1CC[C@@]2(O)C3Cc4ccc(O)c5c4C2(CCN3CC2CC2)C1O5 (stereo in doubt) [Compound B, 17-cyclopropylmethyl-4,5α-epoxy-6-oxomorphinan-3,14-diol] |  |  |  | significant decreases | significantly decreased | 0.00 ± 0.00 | 1.67 ± 0.33 | 2.17 ± 0.40 | 0.50 ± 0.22 |  |  |  |  |  |  |  |  |  |  | 
3 | CCCc1nc2c(C)cc(-c3nc4ccccc4n3C)cc2n1Cc1ccc(-c2ccccc2C(=O)O)cc1 [Telmisartan] |  |  |  | significant decreases | significantly decreased | 1.00 ± 0.26 | 1.17 ± 0.48 | 2.67 ± 0.56 | 0.50 ± 0.22 |  |  |  |  |  |  |  |  |  |  | gradually decreased
